Laboratory results as given in patent US5244917A, “Substituted naphthofurans as anti-inflammatory agents” (The DuPont Merck Pharmaceutical Company, priority 1992, dated 1993).

How the values were obtained:
Platelet phospholipase C = assay: Platelet Phospholipase C Assay; type: biochemical; conditions: 100,000×g supernatant extract of platelet cells; 3H phosphatidylinositol substrate; mantissa only, the power of ten is printed apart; read-out: PLC IC50
Protocol: Platelet phospholipase C was measured using a 100,000×g supernatant extract of platelet cells as the enzyme preparation. The assay mixture consisted of (in final concentrations): ^3 H myoinositol phosphatidylinositol, ([…], 0.1Ci), CaCl2 (5 mM), Tris acetate buffer (60 mM, pH 4.5-7.5), sodium deoxycholate (2 mg/ml), platelet supernatant protein heated at 100° C. for 5 min (1 mg/ml), all in a total volume of […].
The assay was performed according to the method of Rittenhouse [Rittenhouse, S., Preparation of Selectively Labeled Phosphoinositol and Assay of Phosphoinositol-specific Phospholipase C in Methods in Enzymology, Lands, W. and Smith, W., eds., 86, 3-11 (1982)]. The hydrolysis of substrate to water soluble product was calculated on the basis of the specific activity of the substrate. The activity of the compounds was expressed as the percent inhibition of control (no compound) PLC hydrolysis. […] Arachidonic acid is the precursor of inflammagens such as leukotrienes and prostaglandins which are involved in the mediation of the inflammatory process.

A23187-induced ear edema = assay: A23187 Ear Edema Model (murine ear edema protocol); type: in vivo, mouse (male CF-1); conditions: 100 μg/ear topical in acetone; A23187 10 μg/ear; 6 h; 6 mm punch biopsy weight
Protocol: To measure anti-inflammatory activities of the investigational compounds the following standard murine ear edema protocol was used. Edema was induced by the calcium ionophore, A23187 (10 μg/ear) [Marks, F., Furstenberger, G., Kownatzki, E., Prostaglandin E Mediated Stimulation of Mouse Epidermis in vivo by Divalent Cation Ionophore A23187 and by Tumor Promotor TPA, Cancer Res., 41, 696-702 (1981)]. Male CF-1 (Charles River) 18-20 grams were used. Investigational compounds (in acetone at 100 μg/ear) were applied to one ear just prior to application of the inflammagen (A23187). Six hours after A23187 application, edema was determined by comparing the weights of 6 mm punch biopsies from control (solvent) and inflammagen-treated ears. Percent inhibition was calculated using standard equations.

Row | IC50 (Platelet phospholipase C) [µM] | SMILES | A23187 % inhibition (A23187-induced ear edema) [%]
1 | 15 | N#Cc1c(N)oc2c1c(Cc1ccccc1)c(O)c1ccccc12 [Example 1, 2-Amino-4-benzyl-3-cyano-5-hydroxynaphtho[1,2-b]furan] | 83
2 | 26 | N#Cc1c(N)oc2c1c(Cc1ccccc1F)c(O)c1ccccc12 [Example 2, 2-amino-4-(2-fluoro)benzyl-3-cyano-5-hydroxynaphtho[1,2-b]furan] | 71
3 | 190 | COc1ccc2c(c1)c(O)c(Cc1ccccc1)c1c(C#N)c(N)oc12 [Example 11, 2-amino-4-benzyl-3-cyano-5-hydroxy-7-methoxynaphtho[1,2-b]furan] | 82
4 | 56 | COc1ccc2c(O)c(Cc3ccccc3F)c3c(C#N)c(N)oc3c2c1 [Example 16, 2-amino-4-(2-fluoro)benzyl-3-cyano-5-hydroxy-8-methoxynaphtho[1,2-b]furan] | 
5 | 120 | N#Cc1c(N)oc2c1c(Cc1ccc(F)cc1)c(O)c1ccccc12 [Example 4, 2-amino-4-(4-fluoro)benzyl-3-cyano-5-hydroxynaphtho[1,2-b]furan] | 58
6 | 55 | COc1ccc2c(O)c(Cc3ccccc3)c3c(C#N)c(N)oc3c2c1 [Example 12, 2-amino-4-benzyl-3-cyano-5-hydroxy-8-methoxynaphtho[1,2-b]furan] | 
